In patent publication US12144814B2, “Compositions containing paraxanthine and beta-hydroxybutyrate or precursor for increasing neurological and physiological performance” (priority 2023, dated 2024):
Entries after “also recorded” stand apart in the source; their conditions may differ.

How the values were obtained:
mice [1] = experiment: Cook's Pole Climbing Test on mice; format: in vivo; details: PX 100 mg
[2] = biological target: cGMP-preferring phosphodiesterase (PDE9) (Homo sapiens, UniProt O76083); details: cited from earlier work
[3] = in vivo; cited from earlier work
[4] = in vivo; cited from earlier work; remark: listed apart in the source
[5] = 28-day sports nutrition clinical study; format: in vivo; details: paraxanthine 100 mg, paraxanthine 100 mg with BHB 5 g, 28 days, exercise 5 days per week
Description: Participants exercise 5 days per week, of the 4-week study. […] Increases in nitric oxide levels, as well as improved blood lipids scores (e.g., TG, TC, LDL, HDL) are also observed.

[6] = test system: healthy trained male runners; experiment: Vigilance Task Test before and after 10 km treadmill run; format: in vivo; details: 200 mg paraxanthine, 200 mg caffeine, 5 g BHB, and combinations, FIG. 13
Description: The Vigilance Task Test is another test routinely used in the field, and is used to evaluate a participants ability to sustain attention. The Vigilance Task Test is a sustained attention, reaction timed task test that measures the speed with which participants respond to a visual stimulus. The subjects respond to visual stimuli (e.g., a red dot) by pressing a key as soon as it appears on the computer screen. The light turns on at random, e.g., roughly every couple of seconds or so during the test. The speed of response is measured. Due to the random nature of the test, there is no learning effect. Mean response time is recorded. […] The testing is conducted under double blind, placebo controlled conditions. The subjects include 12 healthy trained male runners, aged 26±5 years. Baseline cognition tests are administered (PRE), the given supplement is ingested, and after 60 minutes of rest, a pre-race cognition test (PRE-EX) is administered. A 10 km run on a treadmill is then performed, followed by a post-race cognition test (POST), The cognition tests include a Vigilance Task Test (measuring the ability to remain heedfully vigilant) and a Berg-Washington Card Sorting Task Test (measuring cognitive flexibility).

healthy young adults = experiment: Sternberg Test; format: in vivo; details: 200 mg paraxanthine; 5 g BHB; 200 mg paraxanthine and 5 g BHB; letter length 2, 4, 6; FIGS. 9-11
Description: The Sternberg Test is a test routinely used in the field to evaluate working memory, and ability to make use of short-term memory. A lower reaction time means that participants can access their working memory faster. The Sternberg Task Test is a widely used paradigm for studying short term/working memory involving cognitive control processes. Participants are asked to remember a short series of letters or other characters and then the participants has to respond if the series of letters or characters is present in a larger series of letters or characters. Reaction time is measured when the remembered short series is both present or absent. Mean response time is recorded. When running each such tests, subjects are given either paraxanthine+BHB, paraxanthine alone, BHB alone, or a placebo. The dosage amounts are 200 mg paraxanthine and 5 g of BHB, 200 mg of paraxanthine alone, 5 g of BHB alone, or a placebo. The testing is conducted under double blind, placebo controlled conditions. The subjects include 13 healthy young adults (10 male, 3 female), aged 24±5 years; height 170.0±11.8 cm; weight 72.9±19.3 kg.

adenosine A1 receptors = biological target: T1, adenosine A1 receptors (Homo sapiens, UniProt P30542); details: compared with caffeine; cited from earlier work
T1 sequence (P30542 1-326): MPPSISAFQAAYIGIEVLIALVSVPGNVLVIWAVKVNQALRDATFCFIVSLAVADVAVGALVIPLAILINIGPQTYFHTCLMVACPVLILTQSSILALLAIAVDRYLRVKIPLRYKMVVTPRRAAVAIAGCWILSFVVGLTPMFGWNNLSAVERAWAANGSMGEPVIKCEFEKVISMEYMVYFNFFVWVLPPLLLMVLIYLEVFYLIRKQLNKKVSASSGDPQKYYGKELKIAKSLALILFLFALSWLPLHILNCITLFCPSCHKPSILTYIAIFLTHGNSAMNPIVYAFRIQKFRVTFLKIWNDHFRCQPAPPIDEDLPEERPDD

[7] = metabolite of caffeine, cited from earlier work
dopaminergic neurons = details: cited from earlier work
[8] = Age-related cognitive decline study; format: in vivo
mice [9] = experiment: Forced Swim Test on mice; format: in vivo; details: PX 100 mg
[10] = test system: healthy trained male runners; experiment: Berg-Washington Card Sorting Task Test before and after 10 km treadmill run; format: in vivo; details: 200 mg paraxanthine, 200 mg caffeine, 5 g BHB, and combinations, after 10 km treadmill run
Description: The Berg-Washington Card Sorting Task (BCST) test is a test routinely used in the field to evaluate cognitive flexibility. The BCST test focuses on basic cognitive flexibility or set-shifting between old vs. new rule changes. The test involves reasoning, learning, executive control, and attention shifting. It is particularly sensitive to the subject's inability to shift set. Cards are shown with different colors (e.g., red, green, yellow, blue), different designs (e.g., circle, triangle, star, plus sign) and different numbers of symbols (e.g., 1-4) on the computer screen. Participants are asked to sort the cards by matching colors and/or designs and/or number of symbols, where the instruction for how to sort the cards can change, at different times during the test. Number of correct responses and number of errors (particular perservative errors, where the participant incorrectly continues sorting the cards under an old instruction, after a new instruction is given) are recorded. […] The testing is conducted under double blind, placebo controlled conditions. The subjects include 12 healthy trained male runners, aged 26±5 years. Baseline cognition tests are administered (PRE), the given supplement is ingested, and after 60 minutes of rest, a pre-race cognition test (PRE-EX) is administered. […]

Sequence of cGMP-preferring phosphodiesterase (PDE9) (O76083 whole entry): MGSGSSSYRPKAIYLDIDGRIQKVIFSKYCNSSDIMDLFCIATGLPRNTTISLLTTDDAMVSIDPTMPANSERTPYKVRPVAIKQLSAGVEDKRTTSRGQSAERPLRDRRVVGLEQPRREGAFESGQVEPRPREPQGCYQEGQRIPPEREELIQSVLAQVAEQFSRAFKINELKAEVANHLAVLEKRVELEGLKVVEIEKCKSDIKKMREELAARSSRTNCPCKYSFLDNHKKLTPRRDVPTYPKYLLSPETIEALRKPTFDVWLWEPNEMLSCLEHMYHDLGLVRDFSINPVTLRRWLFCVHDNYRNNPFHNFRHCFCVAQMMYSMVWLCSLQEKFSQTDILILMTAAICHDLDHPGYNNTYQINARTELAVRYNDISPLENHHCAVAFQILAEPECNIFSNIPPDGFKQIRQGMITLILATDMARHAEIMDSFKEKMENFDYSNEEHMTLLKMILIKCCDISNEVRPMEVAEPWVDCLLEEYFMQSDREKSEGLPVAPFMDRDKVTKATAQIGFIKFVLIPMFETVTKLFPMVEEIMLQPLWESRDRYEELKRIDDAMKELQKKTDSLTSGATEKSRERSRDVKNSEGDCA

For `Cn1c(=O)[nH]c2ncn(C)c2c1=O` [paraxanthine, 1,7-dimethylxanthine], the “No. of Climbing” value (mice [1]) is listed as 2.75, the “inhibition of PDE9” value [2] is listed as “inhibits PDE9; also recorded: selective inhibitor” and the wake promoting activity [3] is listed as “stronger wake promoting activity as compared to caffeine”. The locomotor activation effects [4] was “stronger locomotor activation effects than caffeine”, the “endurance (treadmill distance)” value ([5]; FIG. 14A) was “some improvement” and the muscle mass ([5]; FIG. 14B) was “some improvement”. For the same compound, the grip strength ([5]; FIG. 14C) was “some improvement”, the “Vigilance Task Test response times” value [6] was “some benefit” and the “Sternberg Test mean response time” value (healthy young adults) was “decreased mean response time”. For the same compound, the “binding potency for adenosine A1 receptors” value (adenosine A1 receptors) was “higher binding potencies”, the “share of the methylxanthine metabolic by-products” value ([7]; FIG. 2) was “about 84%” and the “share of caffeine ingested” value [7] was 70-72%. For the same compound, the “protection against neurodegeneration and the loss of synaptic function” value (dopaminergic neurons) was “strongly protective”, the Acetylcholine ([8]; PX 25 mg) was 61.04 U/mL and the BDNF ([8]; PX 25 mg) was 828.05 pg/mL. For the same compound, the Catalase ([8]; PX 25 mg) was 30.24 U/mL, the Dopamine ([8]; PX 25 mg) was 493.65 ng/L and the “Escape Latency” value ([8]; PX 25 mg) was 49.9 s. It also gave a Glutathione ([8]; PX 25 mg) of 24.04 µg/mL, an Acetylcholine ([8]; PX 100 mg) of 69.27 U/mL and a BDNF ([8]; PX 100 mg) of 939.15 pg/mL. The Catalase ([8]; PX 100 mg) was 38.91 U/mL, the Dopamine ([8]; PX 100 mg) was 596.32 ng/L and the “Escape Latency” value ([8]; PX 100 mg) was 21.31 s. For the same compound, the Glutathione ([8]; PX 100 mg) was 34.41 µg/mL, the “Duration of Immobility” value (mice [9]) was 5.85 min and the “Duration of mobility/active swimming” value (mice [9]) was 24.15 min. For the same compound, the “Berg-Washington Card Sorting Task Test correct responses, POST relative to PRE” value ([10]; FIG. 12A) was “some improvement in correct responses” and the “Berg-Washington Card Sorting Task Test errors, POST relative to PRE” value ([10]; FIGS. 12B-12D) was “reduced errors”.
